Reference: publication PMC12057359, “Inhibitory effect of copper chelators on the budding in Candida albicans” (Antimicrobial Agents and Chemotherapy, 2025)

How the values were obtained:
C. glabrata JCM3761 [1] = test: iHOPE antimicrobial microdilution assay (turbidity OD600); type: cell-based, Candida glabrata; details: Nakaseomyces glabratus, JCM3761, 24 h, read-out: IC50 against C. glabrata JCM3761
C. albicans JCM1542 [2] = test: Reactive oxygen species (ROS) measurement (DCFH-DA); type: cell-based, Candida albicans; details: 60 min, dose range 0.010–0.3 µM
Method: (§1) Intracellular ATP measurement
(§2) Intracellular ATP levels were examined using the protocol outlined in a previous study (27). C. glabrata JCM3761 was precultured overnight in YPD medium [1% yeast extract (Thermo Fisher Scientific), 2% peptone (NIHON PHARMACEUTICAL, Osaka, Japan), and 2% D-glucose]. A 200-µL inoculum suspension containing 0.1% of a 0.5 McFarland standard suspension was prepared and seeded into a 96-well plate. […] The luminescence was recorded using a Varioskan LUX Multimode Microplate Reader.
(§3) Reactive oxygen species (ROS) measurement
(§4) ROS levels were examined using the method described in a previous paper (27). The overnight preculture of C. albicans JCM1542 was washed and resuspended in 5 mL of PBS buffer. 2’,7’- dichlorodihydrofluorescein diacetate (DCFH-DA; Cayman Chemical, MI, US) was added at a concentration of 50 µM. After incubation at 28 °C for 30 min, the fungi were washed three times with PBS buffer to remove the residual extracellular dye and seeded at a density of 1×10^6 cells/well in 50 µL of PBS, followed by the sample addition. After 60 min of incubation, the fluorescence intensity (excitation wavelength/emission wavelength = 485/535 nm) was measured using Varioskan LUX Multimode Microplate Reader.

C. albicans JCM1542 [3] = test: iHOPE antimicrobial microdilution assay (turbidity OD600); type: cell-based, Candida albicans
C. tropicalis JCM1541 = test: as above; type: cell-based; details: Candida tropicalis, JCM1541, 24 h, read-out: IC50 against C. tropicalis JCM1541
A. fumigatus Af293 = test: iHOPE antimicrobial microdilution assay; type: cell-based, Aspergillus fumigatus; details: Aspergillus fumigatus, AF293, read-out: IC50 against A. fumigatus Af293
P. oryzae Kita-1 = test: microbe, parasite or virus in culture; type: cell-based, Pyricularia oryzae; details: Pyricularia oryzae, KITA1, read-out: IC50 against P. oryzae Kita-1
S. aureus 209P = test: iHOPE antimicrobial microdilution assay; type: cell-based, Staphylococcus aureus; details: Staphylococcus aureus, 209P, read-out: IC50 against S. aureus 209P
C. albicans IFO1601 = tested on: C. albicans IFO1601; design: method as in earlier work; details: cited from earlier work
E. coli HO-141 = test: iHOPE antimicrobial microdilution assay; type: cell-based, Escherichia coli; details: Escherichia coli, HO141, read-out: IC50 against E. coli HO-141
C. albicans JCM1542 [4] = type: cell-based, Candida albicans
C. auris VPCI673 = test: iHOPE antimicrobial microdilution assay (turbidity OD600); type: cell-based, Candida auris; details: Candidozyma auris, VPCI673, 24 h, read-out: IC50 against C. auris VPCI673
C. auris Ci6684 = test: as above; type: cell-based, Candida auris; details: Candidozyma auris, CI6684, 24 h, read-out: IC50 against C. auris Ci6684
C. glabrata JCM3761 [5] = test: Intracellular ATP measurement (BacTiter-Glo); type: cell-based, Candida glabrata; details: C. glabrata JCM3761, 6 h, dose range 0.010–0.3 µM
Method: as §1, §2, §3, §4

[6] = iHOPE in vitro cytotoxicity assessment (Cell Count Reagent SF); type: cell-based, human; details: human; SD in parentheses, n = 3; read-out: IC50 against HL-60 RCB0041 (cytotoxicity)
Method: (§5) The method for in vitro cytotoxicity assessment using Cell Count Reagent SF (Nacalai Tesque) has been described previously ([15]). […] Test compounds were added to the culture medium, and then the plates were incubated at 28°C for 24 h.

HL-60 RCB0041 = test: as above; type: cell-based, human; details: up to / at 30 µM
Method: as §5

## [C-]#[N+][C@H](C)CC(=O)NC[C@@H]1CC[C@H](NC(=O)C[C@@H](C)[N+]#[C-])C(O)O1 (stereo partly shown) [SF2768]
C. glabrata JCM3761 [1]
  IC50: 5.4 nM
C. albicans JCM1542 [2]
  intracellular level of reactive oxygen species (ROS): did not alter the amount
C. albicans JCM1542 [3]; 0.03 µM SF2768, metal chlorides, 24 h
  effect of excessive amounts of other metal ions (iron, zinc, manganese, magnesium) on the activity: did not affect the activity
C. albicans JCM1542 [3]; Candida albicans, JCM1542, 24 h, read-out: IC50 against C. albicans JCM1542
  IC50: 10 nM
C. albicans JCM1542 [3]; HL-60 cytotoxicity versus C. albicans IC50
  selectivity index: > 3,000
C. tropicalis JCM1541
  IC50: 13 nM
A. fumigatus Af293
  IC50: 120 nM
P. oryzae Kita-1
  IC50: > 30000 nM
S. aureus 209P
  IC50: 500 nM
C. albicans IFO1601
  zone of inhibition against C. albicans IFO1601: faint zone of inhibition
E. coli HO-141
  IC50: > 30000 nM
C. albicans JCM1542 [4]
  effect on farnesol-induced yeast growth of C. albicans: clearly inhibited this effect
  morphological change induced in C. albicans: few branching or lateral yeasts were observed, and only minimal hyphal growth was observed
C. albicans JCM1542 [4]; C. albicans JCM1542
  concentration at which the hyphal form of C. albicans was predominant: ≥ 0.030 µM
C. auris VPCI673
  IC50: 49 nM
C. auris Ci6684
  IC50: 20 nM
C. glabrata JCM3761 [5]
  intracellular level of ATP: did not alter the amount
[6]
  IC50: > 30000 nM
HL-60 RCB0041
  cytotoxicity to HL-60 cells (in words): without any cytotoxicity
